The source of these data is patent EP4667483A1, “HUMAN TRANSFERRIN RECEPTOR-BINDING PEPTIDE” (JCR Pharmaceuticals Co., Ltd., priority 2023, dated 2024).

Each structure is given as a SMILES string. Numbered stars: 1 amine (or outer) side, 2 acyl side, 3 side chain; on linkers, the order of the positions; unused ones are H or OH. Bridge positions count the residues as written; N and C are the ends. Square brackets hold non-standard residues; d marks the D form. Side chains are listed from the residue outwards. Peptide text beside a SMILES is read from it. * marks the point of attachment. Trp(1-CH2COOH) = N[C@@H](Cc1cn(CC(=O)O)c2ccccc12)C(=O)O; CH2CON(CH2CH2)2NCH2COOH = O=C(O)CN1CCN(C(=O)C*)CC1; NMePhe(4-COOH) = CN[C@@H](Cc1ccc(C(=O)O)cc1)C(=O)O; X1 = O=C([C@H](Cc1cccc(C(=O)[*:3])c1)N[*:1])[*:2]; Nle(6-morpholino) = N[C@@H](CCCCN1CCOCC1)C(=O)O; Phe(3-COOH) = N[C@@H](Cc1cccc(C(=O)O)c1)C(=O)O; Trp(7-aza) = N[C@@H](Cc1c[nH]c2ncccc12)C(=O)O; NH(CH2CH2O)8Me = COCCOCCOCCOCCOCCOCCOCCOCCN*; NMePhe(3-Cl) = CN[C@@H](Cc1cccc(Cl)c1)C(=O)O; Piperazinyl(4-CH2COOH) = O=C(O)CN1CCN(*)CC1; 3Pal(6-NH2) = Nc1ccc(C[C@H](N)C(=O)O)cn1; NMeW = CN[C@@H](Cc1c[nH]c2ccccc12)C(=O)O; Lys(N3) = [N-]=[N+]=NCCCC[C@H](N)C(=O)O; NMeY = CN[C@@H](Cc1ccc(O)cc1)C(=O)O; Nva(3-Et) = CCC(CC)[C@H](N)C(=O)O; NMeF = CN[C@@H](Cc1ccccc1)C(=O)O; 4Pal = N[C@@H](Cc1ccncc1)C(=O)O; PEG4 = NCCOCCOCCOCCOCCC(=O)O; Carboxymethyl = O=C(O)C*; CO = O=C([*:1])[*:2]

Chain of human transferrin receptor (hTfR) (P02786 whole entry): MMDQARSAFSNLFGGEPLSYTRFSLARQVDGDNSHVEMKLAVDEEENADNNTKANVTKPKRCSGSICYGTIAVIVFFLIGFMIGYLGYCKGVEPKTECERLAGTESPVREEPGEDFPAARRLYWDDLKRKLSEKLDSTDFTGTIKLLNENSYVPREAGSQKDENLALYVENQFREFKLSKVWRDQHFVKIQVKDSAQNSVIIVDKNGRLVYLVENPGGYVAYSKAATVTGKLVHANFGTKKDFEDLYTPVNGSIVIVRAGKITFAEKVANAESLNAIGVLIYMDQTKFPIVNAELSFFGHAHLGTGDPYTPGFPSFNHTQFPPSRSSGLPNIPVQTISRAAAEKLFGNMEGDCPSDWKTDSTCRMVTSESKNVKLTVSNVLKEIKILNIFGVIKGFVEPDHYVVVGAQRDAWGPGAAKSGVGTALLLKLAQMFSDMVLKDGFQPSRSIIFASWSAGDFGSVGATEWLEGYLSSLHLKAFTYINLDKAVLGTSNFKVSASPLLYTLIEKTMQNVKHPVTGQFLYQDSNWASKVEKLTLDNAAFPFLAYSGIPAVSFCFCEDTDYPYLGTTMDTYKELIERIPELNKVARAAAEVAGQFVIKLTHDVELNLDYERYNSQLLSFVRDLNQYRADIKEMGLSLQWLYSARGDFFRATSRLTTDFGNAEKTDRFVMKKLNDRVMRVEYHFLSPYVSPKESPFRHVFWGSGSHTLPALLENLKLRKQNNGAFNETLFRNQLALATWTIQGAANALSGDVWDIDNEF

One experiment deals with human transferrin receptor (hTfR) (Homo sapiens, UniProt P02786). The experiment is described as follows: SPR measurement under pH 7.4 conditions (Biacore T200, CM3 chip, hTfR captured by His Tag antibody). It is filed as binding. The note with it: SPR, pH 7.4; Table 1-3-2-2; read-out: hTfR SPR pH7.4 KD. As to the method:
Molecular interactions between the synthesized peptides and the transferrin receptor (hTfR) were evaluated by surface plasmon resonance (SPR) using the following method. The specific assay procedure is described below.
An CM3 sensor chip (Cytiva) was inserted into BiacoreT200 (Cytiva), then a priming operation was performed three times by using a running buffer: HBS-P+, pH7.4 (Cytiva), and an equilibrium state was created at a flow rate of […]. Ligand immobilization was performed at a flow rate of 10 µL/min. After mixing 50 µL each of 60 mM EDC solution (Cytiva) and 650 mM NHS solution (Cytiva), the mixture was reacted at a flow rate of 10 µL/min for 420 seconds. 150 µL of […] THE His Tag Antibody, mAb, Mouse (GenScript) was prepared by diluting with 10 mM acetic acid solution (pH 5.0), and reacted at a flow rate of 10 µL/ min for 420 seconds. Then, THE His Tag Antibody, mAb, Mouse (GenScript) was immobilized as a capture molecule on the CM3 sensor chip. After immobilization, capping was performed by reacting with 1.0 M ethanolamine solution (Cytiva) at a flow rate of 10 µL/min for 420 seconds. 300 nM hTfR was captured at a flow rate of 10 µL/min, a peptide solution prepared at 10 mM in DMSO was diluted with running buffer to achieve a final concentration of 10 µM, and peptide solutions at 250 nM, 125 nM, 62.5 nM, 25 nM, and 12.5 nM were prepared. . The peptide samples were reacted at a flow late of 30 µL/min for 120 seconds, followed by dissociation for 600 seconds. The kinetics of the peptide against hTfR was obtained by SPR measurement for the above samples.
The kinetic evaluation model was single-cycle kinetics, and curve fitting was performed using Biacore T200 Evaluation Software Version 3.0 (Cytiva). The binding of the peptide to hTfR was evaluated by performing curve fitting on the obtained sensorgram by the least squares method and obtaining the kon value, the koff value, and the KD value.
Broadly, the Kd is the free concentration of one partner at which half of the binding sites on the other are occupied at equilibrium, for simple one-to-one binding. Regarding `CCC(CC)[C@@H]1NC(=O)[C@H](Cc2ccc(O)cc2)NC(=O)[C@H](Cc2ccc(O)cc2)NC(=O)[C@H](CC(N)=O)NC(=O)[C@H](Cc2c[nH]c3ccccc23)N(C)C(=O)[C@H](C(C)C)NC(=O)[C@H](Cc2ccccc2)N(C)C(=O)[C@H](C(C)C)NC(=O)[C@H](C)NC(=O)CSC[C@@H](C(=O)NCC(=O)N[C@@H](CCCCN=[N+]=[N-])C(N)=O)NC(=O)[C@H](Cc2ccc(O)cc2)N(C)C(=O)[C@H](Cc2cccc(C(=O)NCCOCCOCCOCCOCCC(=O)O)c2)NC(=O)[C@H](CCCNC(=N)N)NC(=O)[C@H](CCCCN)NC(=O)[C@H]([C@@H](C)CC)NC1=O` [compound 195] ({CH2CO}-AV[NMeF]V[NMeW]NYY[Nva(3-Et)]IKR[X1](PEG4)[NMeY]CG[Lys(N3)]-NH2; thioether N-15), the Kd was 5.77 nM.

The same experiment, now with this note: SPR, pH 7.4; Table 2-1-2; read-out: hTfR SPR pH7.4 KD(n M).
Take `CC[C@H](C)[C@@H]1NC(=O)[C@H](Cc2ccc(OCC(=O)N3CCN(CC(=O)O)CC3)cc2)NC(=O)[C@H](Cc2ccc(N)nc2)NC(=O)[C@H](CC(N)=O)NC(=O)[C@H](Cc2c[nH]c3ncccc23)NC(=O)[C@H](C(C)C)NC(=O)[C@H](Cc2cccc(Cl)c2)N(C)C(=O)[C@H](C(C)C)NC(=O)[C@H](C)NC(=O)CSC[C@@H](C(=O)NCCOCCOCCOCCOCCC(N)=O)NC(=O)[C@H](Cc2ccc(O)cc2)N(C)C(=O)[C@H](Cc2ccncc2)NC(=O)[C@H](CCCNC(=N)N)NC(=O)[C@H](CCCCNC(=O)N2CCN(CC(=O)O)CC2)NC(=O)[C@H]([C@@H](C)CC)NC1=O` [compound 156] ({CH2CO}-AV[NMePhe(3-Cl)]V[Trp(7-aza)]N[3Pal(6-NH2)]Y(CH2CON(CH2CH2)2NCH2COOH)IIK([CO-Piperazinyl(4-CH2COOH)])R[4Pal][NMeY]C[PEG4]-NH2; thioether N-15): the Kd came out at 16 nM. On the same count and under the same terms, as for `CC[C@H](C)[C@@H]1NC(=O)[C@H](Cc2ccc(OCC(=O)N3CCN(CC(=O)O)CC3)cc2)NC(=O)[C@H](Cc2ccc(N)nc2)NC(=O)[C@H](CC(N)=O)NC(=O)[C@H](Cc2c[nH]c3ncccc23)NC(=O)[C@H](C(C)C)NC(=O)[C@H](Cc2cccc(Cl)c2)N(C)C(=O)[C@H](C(C)C)NC(=O)[C@H](C)NC(=O)CSC[C@@H](C(=O)NCCOCCOCCOCCOCCC(N)=O)NC(=O)[C@H](Cc2ccc(O)cc2)N(C)C(=O)[C@H](Cc2ccncc2)NC(=O)[C@H](CCCCN2CCOCC2)NC(=O)[C@H](CCC(=O)NCCOCCOCCOCCOCCOCCOCCOCCOC)NC(=O)[C@H]([C@@H](C)CC)NC1=O` [compound 154] ({CH2CO}-AV[NMePhe(3-Cl)]V[Trp(7-aza)]N[3Pal(6-NH2)]Y(CH2CON(CH2CH2)2NCH2COOH)IIE(NH(CH2CH2O)8Me)[Nle(6-morpholino)][4Pal][NMeY]C[PEG4]-NH2; thioether N-15), the figure is 32.6 nM; as for `CC[C@H](C)[C@@H]1NC(=O)[C@H](Cc2ccc(OCC(=O)N3CCN(CC(=O)O)CC3)cc2)NC(=O)[C@H](Cc2ccc(N)nc2)NC(=O)[C@H](CC(N)=O)NC(=O)[C@H](Cc2cn(CC(=O)O)c3ccccc23)NC(=O)[C@H](C(C)C)NC(=O)[C@H](Cc2cccc(Cl)c2)N(C)C(=O)[C@H](C(C)C)NC(=O)[C@H](C)NC(=O)CSC[C@@H](C(=O)NCCOCCOCCOCCOCCC(N)=O)NC(=O)[C@H](Cc2ccc(O)cc2)N(C)C(=O)[C@H](Cc2ccncc2)NC(=O)[C@H](CCCNC(=N)N)NC(=O)[C@H](CCCCNC(=O)N2CCN(CC(=O)O)CC2)NC(=O)[C@H]([C@@H](C)CC)NC1=O` [compound 158] ({CH2CO}-AV[NMePhe(3-Cl)]V[Trp(1-CH2COOH)]N[3Pal(6-NH2)]Y(CH2CON(CH2CH2)2NCH2COOH)IIK([CO-Piperazinyl(4-CH2COOH)])R[4Pal][NMeY]C[PEG4]-NH2; thioether N-15), 20.2 nM; as for `CC[C@H](C)[C@@H]1NC(=O)[C@H](Cc2ccc(OCC(=O)N3CCN(CC(=O)O)CC3)cc2)NC(=O)[C@H](Cc2ccc(N)nc2)NC(=O)[C@H](CC(N)=O)NC(=O)[C@H](Cc2cn(CC(=O)O)c3ccccc23)NC(=O)[C@H](C(C)C)NC(=O)[C@H](Cc2cccc(Cl)c2)N(C)C(=O)[C@H](C(C)C)NC(=O)[C@H](C)NC(=O)CSC[C@@H](C(=O)NCCOCCOCCOCCOCCC(N)=O)NC(=O)[C@H](Cc2ccc(O)cc2)N(C)C(=O)[C@H](Cc2ccncc2)NC(=O)[C@H](CCCNC(=N)N)NC(=O)[C@H](CCC(=O)NCCOCCOCCOCCOCCOCCOCCOCCOC)NC(=O)[C@H]([C@@H](C)CC)NC1=O` [compound 160], 20.8 nM. On the same count and under the same terms, as for `CCC(CC)[C@@H]1NC(=O)[C@H](Cc2ccc(OCC(=O)O)cc2)NC(=O)[C@H](Cc2ccc(N)nc2)NC(=O)[C@H](CC(N)=O)NC(=O)[C@H](Cc2c[nH]c3ncccc23)NC(=O)[C@H](C(C)C)NC(=O)[C@H](Cc2cccc(Cl)c2)N(C)C(=O)[C@H](C(C)C)NC(=O)[C@H](C)NC(=O)CSC[C@@H](C(=O)NCCOCCOCCOCCOCCC(N)=O)NC(=O)[C@H](Cc2ccc(C(=O)O)cc2)N(C)C(=O)[C@H](Cc2cccc(C(=O)O)c2)NC(=O)[C@H](CCCNC(=N)N)NC(=O)[C@H](CCC(=O)NCCOCCOCCOCCOCCOCCOCCOCCOC)NC(=O)[C@H]([C@@H](C)CC)NC1=O` [compound 161] ({CH2CO}-AV[NMePhe(3-Cl)]V[Trp(7-aza)]N[3Pal(6-NH2)]Y(Carboxymethyl)[Nva(3-Et)]IE(NH(CH2CH2O)8Me)R[Phe(3-COOH)][NMePhe(4-COOH)]C[PEG4]-NH2; thioether N-15), the figure is 12200 nM; as for `CC[C@H](C)[C@@H]1NC(=O)[C@H](Cc2ccc(OCC(=O)N3CCN(CC(=O)O)CC3)cc2)NC(=O)[C@H](Cc2ccc(N)nc2)NC(=O)[C@H](CC(N)=O)NC(=O)[C@H](Cc2cn(CC(=O)O)c3ccccc23)NC(=O)[C@H](C(C)C)NC(=O)[C@H](Cc2cccc(Cl)c2)N(C)C(=O)[C@H](C(C)C)NC(=O)[C@H](C)NC(=O)CSC[C@@H](C(=O)NCCOCCOCCOCCOCCC(N)=O)NC(=O)[C@H](Cc2ccc(O)cc2)N(C)C(=O)[C@H](Cc2ccncc2)NC(=O)[C@H](CCCCN2CCOCC2)NC(=O)[C@H](CCC(=O)NCCOCCOCCOCCOCCOCCOCCOCCOC)NC(=O)[C@H]([C@@H](C)CC)NC1=O` [compound 155] ({CH2CO}-AV[NMePhe(3-Cl)]V[Trp(1-CH2COOH)]N[3Pal(6-NH2)]Y(CH2CON(CH2CH2)2NCH2COOH)IIE(NH(CH2CH2O)8Me)[Nle(6-morpholino)][4Pal][NMeY]C[PEG4]-NH2; thioether N-15), 28.4 nM.

Still in this experiment, the particulars now being: SPR, pH 7.4; Table 2-2; read-out: hTfR SPR pH7.4 KD.
Take `CC[C@H](C)[C@@H]1NC(=O)[C@H](Cc2ccc(OC)cc2)NC(=O)[C@H](Cc2ccc(N)nc2)NC(=O)[C@H](CC(N)=O)NC(=O)[C@H](Cc2cnc3ccccn23)NC(=O)[C@H](C(C)C)NC(=O)[C@H](Cc2cccc(Cl)c2)N(C)C(=O)[C@H](C(C)C)NC(=O)[C@H](C)NC(=O)CSC[C@@H](C(=O)NCC(=O)N[C@H](CCC(=O)O)C(=O)N[C@H](CCC(=O)O)C(=O)N[C@H](CCC(=O)O)C(=O)N[C@H](CO)C(=O)N[C@H](CO)C(=O)N[C@@H](CCCCN=[N+]=[N-])C(N)=O)NC(=O)[C@H](Cc2ccc(C(=O)O)cc2)N(C)C(=O)[C@H](Cc2ccncc2)NC(=O)[C@H](CCCNC(=N)N)NC(=O)[C@H](CCCNC(=N)N)NC(=O)[C@H]([C@@H](C)CC)NC1=O` [compound 200]: the dissociation constant Kd stood at 81.6 nM. Still for that read-out and setting: as for `CC[C@H](C)[C@@H]1NC(=O)[C@H](Cc2ccc(OC)cc2)NC(=O)[C@H](Cc2ccc(N)nc2)NC(=O)[C@H](CC(N)=O)NC(=O)[C@H](Cc2cnc3ccccn23)NC(=O)[C@H](C(C)C)NC(=O)[C@H](Cc2ccccc2)N(C)C(=O)[C@H](C(C)C)NC(=O)[C@H](C)NC(=O)CSC[C@@H](C(=O)NCC(=O)N[C@H](CCC(=O)O)C(=O)N[C@H](CCC(=O)O)C(=O)N[C@H](CCC(=O)O)C(=O)N[C@H](CO)C(=O)N[C@H](CO)C(=O)N[C@@H](CCCCN=[N+]=[N-])C(N)=O)NC(=O)[C@H](Cc2ccc(O)cc2)N(C)C(=O)[C@H](Cc2ccncc2)NC(=O)[C@H](CCCNC(=N)N)NC(=O)[C@H](CCCNC(=N)N)NC(=O)[C@H]([C@@H](C)CC)NC1=O` [compound 202], the figure is 515 nM. Still for that read-out and setting: as for `CC[C@H](C)[C@@H]1NC(=O)[C@H](Cc2ccc(OC)cc2)NC(=O)[C@H](Cc2ccc(N)nc2)NC(=O)[C@H](CC(N)=O)NC(=O)[C@H](Cc2cnc3ccccn23)NC(=O)[C@H](C(C)C)NC(=O)[C@H](Cc2ccccc2)N(C)C(=O)[C@H](C(C)C)NC(=O)[C@H](C)NC(=O)CSC[C@@H](C(=O)NCC(=O)N[C@H](CCC(=O)O)C(=O)N[C@H](CCC(=O)O)C(=O)N[C@H](CCC(=O)O)C(=O)N[C@H](CO)C(=O)N[C@H](CO)C(=O)N[C@@H](CCCCN=[N+]=[N-])C(N)=O)NC(=O)[C@H](Cc2ccc(C(=O)O)cc2)N(C)C(=O)[C@H](Cc2ccncc2)NC(=O)[C@H](CCCNC(=N)N)NC(=O)[C@H](CCCNC(=N)N)NC(=O)[C@H]([C@@H](C)CC)NC1=O` [compound 201], the figure is 212 nM.
